Measurements taken from US20070082910A1, “Specific nad(p)h oxidase inhibitor” (Mitsubishi Pharma Corporation, priority 2003, published 2007).
Marks after values point to notes of the source that are not given here.

How the values were obtained:
p22^Phox = assay: Effect on p22^Phox expression induced by oxidized LDL in HUVEC (RT-PCR); type: cell-based, human
Procedure: HUVEC was seeded in a 24-well collagen-coated plate. Compound A was added, and oxidized LDL (100 μg/mL) prepared from the blood obtained from normal healthy volunteers was added 24 hr later.
At 24 hr after the oxidized LDL addition, total RNA was […] extracted using MgExtractor (TOYOBO) and DNase I treatment (Nippon gene) was conducted.
The concentration of the total RNA was calculated by measuring absorbance (OD260) of a fraction therefrom.
Using the obtained total RNA (100 ng), RT (reverse transcription) reaction (ABI) was carried out to synthesis cDNA.
Using the synthesized cDNA (10 μL), PCR (polymerase chain reaction) was carried out (ABI), and expression amounts of p22^Phox which is a major component of NAD(P)H oxidase, and β-actin as an internal standard were measured.
The expression amount of p22^Phox was standardized to the expression amount of β-actin and expressed based on the expression amount of (p22^Phox)/( β-actin) of normal as 100%.

NAD(P)H oxidase = assay: IL-8 production inhibitory effect in HUVEC cultured with 44 mM glucose; type: cell-based, human; conditions: for inhibitory rate (%) of IL-8 production: 8 days
Procedure: NAD(P)HOxidase Inhibitory Effect (Method)
44 mM glucose was added to Human Umbilical Vein Endothelial Cells (Bio Whittaker, hereinafter to be indicated as “HUVEC”), and cells were cultured for 8 days. Then, a lysis buffer containing a surfactant, Triton-X Nonidet P-40, was added, and interleukin-8 (hereinafter to be indicated as “IL-8”) in the cell lysate, which had been produced by NAD(P)H oxidase was measured by an enzyme-linked […]. The test compound was added one day before glucose addition.
The inhibitory rate was calculated from the following formula: inhibitory rate (%)=100−[(A−C)/(B−C)]×100
wherein A is IL-8 production of a cell cultured in the presence of 44 mM glucose with addition of the test compound, B is IL-8 production of a cell cultured in the presence of 44 mM glucose without addition of the test compound, and C is IL-8 production of a cell cultured in the absence of 44 mM glucose and the test compound. The IC50 value was calculated from the dose-effect line drawn by the least squares method based on the obtained inhibitory rate.

[1] = tested on: NAD(P)H oxidase in diabetic rat aorta; assay: Aorta NAD(P)H oxidase inhibitory effect, test compound added to aorta ring specimen in vitro; type: biochemical; conditions: for chemiluminescence (×10^5 RLU/wet weight of aorta): mean ± standard error
Procedure: This ring specimen was preincubated in Krebs-Hepes buffer containing the test compound (compound A, compound B or DPI (SIGMA)) at 37° C. for 10 min, and then transferred to Krebs-Hepes buffer containing 0.25 mM lucigenin. […] The total value of chemiluminescence was calculated from AUC of the curve drawn by plotting the chemiluminescence value (vertical axis) relative to the measurement time (horizontal axis). The obtained chemiluminescence value was divided by the wet weight of the vascular ring specimen and standardized to the superoxide anion production per aorta unit weight.

[2] = tested on: rabbit myocardial infarction model; assay: Rabbit ischemia-reperfusion myocardial infarction model; type: in vivo; conditions: 1 mg/kg 1 hr before ligation; normal group as 100%
Excerpt: Male NZW rabbits (Japan SLC) were fixed in the dorsal position and subjected to thoracotomy with pentobarbital anesthesia. A silk thread (No. 4) was applied to the proximal left coronary artery, a polyethylene tube (length 1 cm) was further applied and the left coronary artery was ligated using a thread. After 2 hr from the ligation, the thread on the polyethylene tube was cut to reperfusion. After 4 hr from the reperfusion, the proximal coronary artery was ligated using a silk thread (No. 4), and 3% Evans blue solution (1 mL/kg) was intravenously administered. After 5 min, an excess pentobarbital was administered and the heart and aorta were removed. The heart was cut into a 3 mm-wide annular shape, and the left ventricle area and ischemia region (Evans blue unstained region) were traced.
After incubation in 1% TTC solution for 30 min, an infarction focus (TTC unstained region) was traced. Compound A (1 mg/kg) was administered 1 hr before the ligation.
The ratios of the ischemic region and infarction focus to the left ventricle area were calculated. […]
This suspension was centrifuged at 3000 rpm for 10 min, and the supernatant (8 mL) was centrifuged at 15000 rpm for 15 min. The obtained supernatant was mixed with phosphate buffer containing o-dianisidine dihydrochloride, kept at 25° C. for 30 min, the absorbance (OD460) was measured, and the myeloperoxidase (MPO) activity was determined. […]

[3] = tested on: rabbit chronic myocardial infarction (heart failure) model; assay: Rabbit chronic myocardial infarction (heart failure) model; type: in vivo
Procedure: Male NZW rabbits (Japan SLC) were fixed in the dorsal position and subjected to thoracotomy with pentobarbital anesthesia. A silk thread (No. 4) was applied to the basal part of the left coronary artery, a polyethylene tube (length 1 cm) was further applied and the left coronary artery was ligated using a thread. After 2 hr from the ligation, the thread on the polyethylene tube was cut to reperfusion. At 2 hr from the reperfusion, compound A (1 mg/kg) was administered once, and administered once a day for 12 weeks. After 12 weeks, an excess pentobarbital was administered, the heart was removed, and the weight thereof and the thickness of the left ventricle center wall were measured.
The compound was evaluated by the mortality rate, heart weight and thickness of left ventricle.

leukocyte NADPH oxidase = assay: Effect on leukocyte NADPH oxidase (PMA-stimulated lucigenin chemiluminescence); type: cell-based, rat
Procedure: Blood was drawn from the abdominal aorta of normal male Wister rats (Japan SLC) and immediately mixed with an ice-cold lysis buffer at 42 mL of the buffer per 3 mL of the blood.
After 5 min, the mixture was centrifuged at 4° C., 1100 rpm for 5 min. The precipitate was suspended in an ice-cold Lysis buffer, and centrifuged again at 4° C., 1100 rpm for 5 min. This operation was repeated 3 times to obtain leukocytes. The obtained leukocytes were suspended in Krebs-Hepes buffer and the number of the cells was adjusted to 1×10^6/ml. 0.25 mM Lucigenin and the test agent were added, Phorbol 12-myristate 13-acetate (hereinafter to be indicated as “PMA”, SIGMA) was further added, and the chemiluminescence value was measured at 37° C. for 10 min.
The inhibitory rate (%) was calculated by the following formula: inhibitory rate (%)=100−[(A−C)/(B−C))×[…] wherein A is the total chemiluminescence value of the leukocyte suspension with the addition of the test compound, B is the total chemiluminescence value of the leukocyte suspension (control) without addition of the test compound, and C is the total chemiluminescence value of the leukocyte suspension without stimulation with PMA.

[4] = 0.1 μM added to aorta ring in vitro
[5] = 1 μM added to aorta ring in vitro
[6] = 1 mg/kg once a day for 12 weeks
[7] = 1 mg/kg once a day, deaths/animals

SMILES: C[C@@H](Nc1nnc(-c2ccccc2)c2ccccc12)C1CCCCC1.O=C(O)/C=C\C(=O)O [compound A]
- p22^phox expression ((p22^Phox)/(β-actin), normal as 100%) (p22^Phox; oxidized LDL 100 μg/mL + 0.1 μM compound, mean ± standard error): 116.64 ± 16.61 %
- p22^Phox expression relative to the normal group (p22^Phox; oxidized LDL addition): 1.2 fold
- IC50 (NAD(P)H oxidase; from dose-effect line by least squares): 6.3 nM
- inhibitory rate (%) of IL-8 production (NAD(P)H oxidase; test compound concentration 0.01 μM): 39.5%
- inhibitory rate (%) of IL-8 production (NAD(P)H oxidase; test compound concentration 0.1 μM): 59.8%
- inhibitory rate (%) of IL-8 production (NAD(P)H oxidase; test compound concentration 1 μM): 74%
- inhibitory rate (%) [1, 4]: 2.2%
- chemiluminescence (×10^5 RLU/wet weight of aorta) [1, 4]: 9.1 ± 1.7 ×10^5 RLU/wet weight of aorta
- inhibitory rate (%) [1, 5]: 1.1%
- chemiluminescence (×10^5 RLU/wet weight of aorta) [1, 5]: 9.2 ± 1.7 ×10^5 RLU/wet weight of aorta
- NAD(P)H oxidase inhibitory effect on aorta ring in vitro ([1]; result in words): did not show an NAD(P)H oxidase inhibitory effect
- MPO activity in myocyte [2]: 128%*
- mortality rate ([3]; 1 mg/kg once a day): 8%
- heart weight (g/kg body weight) [3, 6]: 2.05* g/kg body weight
- thickness (mm) of left ventricle [3, 6]: 1.17* mm
- cumulative mortality, 2 weeks after ligation [3, 7]: 0/12
- cumulative mortality, 4 weeks after ligation [3, 7]: 1/12
- inhibitory rate (%), leukocyte NADPH oxidase (leukocyte NADPH oxidase; 1 μM, PMA-stimulated rat leukocytes, mean ± standard error): 2.4 ± 13.6%
- inhibitory effect on leukocyte NADPH oxidase (leukocyte NADPH oxidase; result in words): did not show an inhibitory effect on leukocyte NADPH oxidase
